Assay results as given in the supplement of paper PMC11061612.

Experiments:
[1] = tested on: SK-GT-2 (Gastric Carcinoma); assay: combination Emax (second highest fraction inhibited in the dose matrix, 72 h); higher = more inhibition; extreme values may be limits of the assay
Outline: (§1)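 Cell lines grown in DMEM/F12 or RPMI with 10% FBS were plated in 1536-well plates and held 24 hours at 37°C, 5% CO2 before 72 hours of exposure to two-drug dose matrices, with DMSO typically at 0.2%. CellTiter-Glo 2.0 luminescence gave viability, which was converted to inhibition. Vehicle wells were set to 0 and blank wells to 1. Combination Emax is the second-highest inhibition in the matrix, and Bliss excess is the observed combination effect minus the expected EA + EB − EA·EB, where EA and EB are the single-agent effects.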

[2] = tested on: HCC1187 (Breast Carcinoma); assay: as above
Outline: as §1

[3] = tested on: RPMI-8226 (Plasma Cell Myeloma); assay: as above
Outline: as §1

[4] = tested on: MOLM-13 (Acute Myeloid Leukemia); assay: as above
Outline: as §1

[5] = tested on: SK-GT-4 (Esophageal Adenocarcinoma); assay: as above
Outline: as §1

[6] = tested on: HCC1419 (Breast Carcinoma); assay: as above
Outline: as §1

[7] = tested on: H9 (T-Cell Non-Hodgkin's Lymphoma); assay: as above
Outline: as §1

[8] = tested on: ESO51 (Esophageal Adenocarcinoma); assay: as above
Outline: as §1

[9] = tested on: M059J (Glioblastoma); assay: as above
Outline: as §1

[10] = tested on: SJSA-1 (Osteosarcoma); assay: as above
Outline: as §1

[11] = tested on: DMS-114 (Small Cell Lung Carcinoma); assay: as above
Outline: as §1

[12] = tested on: KYSE-270 (Esophageal Squamous Cell Carcinoma); assay: as above
Outline: as §1

[13] = tested on: KP-3 (Pancreatic Carcinoma); assay: as above
Outline: as §1

[14] = tested on: NCI-H661 (Non-Small Cell Lung Carcinoma); assay: as above
Outline: as §1

[15] = tested on: NCI-H2731 (Mesothelioma); assay: as above
Outline: as §1

[16] = tested on: CHSA8926 (Chondrosarcoma); assay: as above
Outline: as §1

[17] = tested on: ST486 (Burkitt's Lymphoma); assay: as above
Outline: as §1

[18] = tested on: JHH-4 (Hepatocellular Carcinoma); assay: as above
Outline: as §1

[19] = tested on: IM-95 (Gastric Carcinoma); assay: as above
Outline: as §1

[20] = tested on: SUP-B15 (B-Lymphoblastic Leukemia); assay: Bliss excess, mean over the matrix (fraction); higher = more synergy;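 also: after 72 h of two-drug dosing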
Outline: as §1

Structure (SMILES) | combination Emax [1] | combination Emax [2] | combination Emax [3] | combination Emax [4] | combination Emax [5] | combination Emax [6] | combination Emax [7] | combination Emax [8] | combination Emax [9] | combination Emax [10] | combination Emax [11] | combination Emax [12] | combination Emax [13] | combination Emax [14] | combination Emax [15] | combination Emax [16] | combination Emax [17] | combination Emax [18] | combination Emax [19] | Bliss excess [20]
COc1nnc2ccc(N3CCC(c4ccc(OCCN5CCN(C)C(=O)[C@H]5C)cc4)CC3)nn12 [AZD5153] + Cn1cnc2c(F)c(Nc3ccc(Br)cc3Cl)c(C(=O)NOCCO)cc21 [Selumetinib] (first compound max 1 µM, 7x7, partner max 10 µM) | 0.479 | 0.383 | 0.913 | 1 | 0.651 | 0.355 | 1 | 0.901 | 0.618 | 0.576 | 0.614 | 0.58 | 0.338 | 0.305 | 0.39 | 0.442 | 0.994 | 0.906 | 0.564 | 0.101
CCN(CCO)CCCOc1ccc2c(Nc3cc(CC(=O)Nc4cccc(F)c4)[nH]n3)ncnc2c1 [AZD2811] + O=C(c1cc(Cc2n[nH]c(=O)c3ccccc23)ccc1F)N1CCN(C(=O)C2CC2)CC1 [Olaparib] (first compound max 1 µM, 7x7, partner max 10 µM) | 0.203 | 0.824 | 0.491 | 1 | 0.223 | 0.115 | 0.71 | 0.118 | 0.413 | 0.17 | 0.177 | 0.322 | 0.144 | 0.155 | 0.226 | 0.3 | 0.856 | 0.0395 | 0.362 | -0.0227
Cc1c2c(nn1C)CSCc1cc(n(C)n1)CSc1cc(c3ccccc3c1)OCCCc1c(C(=O)O)n(C)c3c-2c(Cl)ccc13 [AZD5991] + C[C@@H](Nc1cc(F)cc(F)c1)c1cc(C(=O)N(C)C)cc2c(=O)cc(N3CCOCC3)oc12 [AZD8186] (first compound max 1 µM, 7x7, partner max 3 µM) | 0.179 | 0.993 | 0.949 | 1 | 0.288 | 0.344 | 0.574 | 0.217 | 0.421 | 0.34 | 0.61 | 0.622 | 0.124 | 0.6 | 0.151 | 0.797 | 0.829 | 0.271 | 0.817 | -0.0091
CC1(C)CCC(CN2CCN(c3ccc(C(=O)NS(=O)(=O)c4ccc(NCC5CCOCC5)c([N+](=O)[O-])c4)c(Oc4cnc5[nH]ccc5c4)c3)CC2)=C(c2ccc(Cl)cc2)C1 [Venetoclax] + C1CN(CCC1(C(=O)N[C@@H](CCO)C2=CC=C(C=C2)Cl)N)C3=NC=NC4=C3C=CN4 [Capivasertib] (first compound max 1 µM, 7x7, partner max 3 µM) | 0.162 | 0.183 | 0.172 | 1 | 0.484 | 0.53 | 0.541 | 0.11 | 0.396 | 0.31 | 0.24 | 0.711 | 0.137 | 0.192 | 0.27 | 0.331 | 0.759 | 0.119 | 0.398 | 0.0077
CN(CCO)CC[C@H](CSc1ccccc1)Nc1ccc(S(=O)(=O)NC(=O)c2ccc(N3CCC([C@@H](O)c4ccccc4-c4ccc(Cl)cc4)CC3)cc2)cc1S(=O)(=O)C(F)(F)F [AZD4320] + C[C@@H](Nc1cc(F)cc(F)c1)c1cc(C(=O)N(C)C)cc2c(=O)cc(N3CCOCC3)oc12 [AZD8186] (first compound max 1 µM, 7x7, partner max 3 µM) | 0.237 | 0.35 | 0.968 | 1 | 0.415 | 0.342 | 0.958 | 0.336 | 0.306 | 0.315 | 0.362 | 0.357 | 0.178 | 0.308 | 0.552 | 0.863 | 0.887 | 0.34 | 0.855 | 0.0179
CN(CCO)CC[C@H](CSc1ccccc1)Nc1ccc(S(=O)(=O)NC(=O)c2ccc(N3CCC([C@@H](O)c4ccccc4-c4ccc(Cl)cc4)CC3)cc2)cc1S(=O)(=O)C(F)(F)F [AZD4320] + CN(C)CCCOc1ccc(-c2ccc3ncc4c(c3c2)n(C2CCOCC2)c(=O)n4C)cn1 [AZD0156] (first compound max 1 µM, 7x7, partner max 1 µM) | 0.154 | 0.154 | 0.949 | 1 | 0.188 | 0.245 | 0.996 | 0.193 | 0.366 | 0.283 | 0.12 | 0.0949 | 0.0528 | 0.0831 | 0.109 | 0.46 | 0.911 | 0.293 | 0.69 | -0.0535
Cc1cc2ncnn2cc1Nc1ncc2c(n1)n(C1CCOCC1)c(=O)n2C [AZD7648] + C[C@@H]1COCCN1C2=NC(=NC(=C2)C3(CC3)[S@](=N)(=O)C)C4=C5C=CNC5=NC=C4 [AZD6738] (first compound max 10 µM, 7x7, partner max 10 µM) | 0.216 | 0.278 | 0.855 | 0.998 | 0.576 | 0.327 | 0.964 | 0.744 | 0.514 | 0.435 | 0.54 | 0.717 | 0.296 | 0.56 | 0.381 | 0.428 | 0.893 | 0.276 | 0.317 | -0.0159
